Like-named read-outs stand apart in the source and are kept apart here.
How the values were obtained:
HCT116 = assay: cells; assay type: cell-based
Colo320 = assay: cells; assay type: cell-based
SW480 = assay: cells; assay type: cell-based
DLD-1 = assay: cells; assay type: cell-based
RKO = assay: cells; assay type: cell-based
SNU-C1 = assay: cells; assay type: cell-based
HT-29 = assay: cells; assay type: cell-based
[1] = tested on: ECFC/ADSC co-culture cell nuclei number
[2] = tested on: endothelial tube formation in co-cultures of ECFCs and ADSCs treated with VEGF; assay: cells; assay type: cell-based, human
HeLa cells = assay: cells; assay type: cell-based

OC[C@@H](O)[C@H](O)[C@H](O)[C@@H](O)CO [NCGC00166072-02]
Basal_Viability ATP HCT116 IC50/EC50 (HCT116; assay number 25, basal): > 20 µM | Basal_Viability ATP Colo 320 IC50/EC50 (Colo320; assay number 27, basal): > 20 µM | Basal_Viability ATP SW480 IC50/EC50 (SW480; assay number 24, basal): > 20 µM | Basal_Viability ATP DLD-1 IC50/EC50 (DLD-1; assay number 23, basal): > 20 µM | Basal_Viability ATP RKO IC50/EC50 (RKO; assay number 29, basal): > 20 µM | Basal_Viability ATP SNU-C1 IC50/EC50 (SNU-C1; assay number 30, basal): > 20 µM | Basal_Viability ATP HT-29 IC50/EC50 (HT-29; assay number 28, basal): > 20 µM

O.O=C1[O][Bi][O]c2ccccc21 [NCGC00166299-03]
Basal_Viability ATP HCT116 IC50/EC50 (HCT116; assay number 25, basal): > 20 µM | Basal_Viability ATP Colo 320 IC50/EC50 (Colo320; assay number 27, basal): > 20 µM | Basal_Viability ATP SW480 IC50/EC50 (SW480; assay number 24, basal): > 20 µM | Basal_Viability ATP DLD-1 IC50/EC50 (DLD-1; assay number 23, basal): > 20 µM | Basal_Viability ATP RKO IC50/EC50 (RKO; assay number 29, basal): > 20 µM | Basal_Viability ATP SNU-C1 IC50/EC50 (SNU-C1; assay number 30, basal): 15.3838 µM | Basal_Viability ATP HT-29 IC50/EC50 (HT-29; assay number 28, basal): > 20 µM

Cc1cc(C(C#N)c2ccc(Cl)cc2)c(Cl)cc1NC(=O)c1cc(I)cc(I)c1O (stereo not shown) [NCGC00166312-02]
Basal_Viability ATP HCT116 IC50/EC50 (HCT116): 0.09775 µM | Basal_Viability ATP Colo 320 IC50/EC50 (Colo320): 0.116 µM | Basal_Viability ATP SW480 IC50/EC50 (SW480): 0.046 µM | VEGF_ADSC\ECFC Angio Hoechst NucArea IC50/EC50 [1]: 7.36 µM | Basal_Viability ATP DLD-1 IC50/EC50 (DLD-1): 0.069 µM | Basal_Viability ATP RKO IC50/EC50 (RKO): 0.1971 µM | VEGF_ADSC\ECFC Angio CD31 TubeArea IC50/EC50 [2]: > 10 µM | Basal_Viability ATP SNU-C1 IC50/EC50 (SNU-C1): 0.0438 µM | Basal_Viability ATP HT-29 IC50/EC50 (HT-29): 0.1255 µM

CC(C)(C)CC(C)(C)c1cc(Cc2cc(C(C)(C)CC(C)(C)C)cc(-n3nc4ccccc4n3)c2O)c(O)c(-n2nc3ccccc3n2)c1 [NCGC00167544-02]
Basal_Viability ATP HCT116 IC50/EC50 (HCT116; assay number 25, basal): > 20 µM | Basal_Viability ATP Colo 320 IC50/EC50 (Colo320; assay number 27, basal): > 20 µM | Basal_Viability ATP SW480 IC50/EC50 (SW480; assay number 24, basal): > 20 µM | Basal_Viability ATP DLD-1 IC50/EC50 (DLD-1; assay number 23, basal): > 20 µM | Basal_Viability ATP RKO IC50/EC50 (RKO; assay number 29, basal): > 20 µM | Basal_Viability ATP SNU-C1 IC50/EC50 (SNU-C1; assay number 30, basal): > 20 µM | Basal_Viability ATP HT-29 IC50/EC50 (HT-29; assay number 28, basal): > 20 µM

CC(C)=CC1C(C(=O)OCN2C(=O)C3=C(CCCC3)C2=O)C1(C)C (stereo not shown) [NCGC00168352-02]
IC50/EC50, Basal_Viability ATP HCT116 (assay number 25) (HCT116; basal): > 20 µM | IC50/EC50, Basal_Viability ATP Colo 320 (assay number 27) (Colo320; basal): > 20 µM | IC50/EC50, Basal_Viability ATP SW480 (assay number 24) (SW480; basal): > 20 µM | IC50/EC50, Basal_Viability ATP DLD-1 (assay number 23) (DLD-1; basal): > 20 µM | IC50/EC50, Basal_Viability ATP RKO (assay number 29) (RKO; basal): > 20 µM | IC50/EC50, Basal_Viability ATP SNU-C1 (assay number 30) (SNU-C1; basal): > 20 µM | IC50/EC50, Basal_Viability ATP HT-29 (assay number 28) (HT-29; basal): > 20 µM

NCCCC[C@H](N[C@@H](CCc1ccccc1)C(=O)O)C(=O)N1CCC[C@H]1C(=O)O [NCGC00179623-04]
Basal_Viability ATP HCT116 IC50/EC50 (HCT116; assay number 25, basal): 3.3925 µM | Basal_Viability ATP Colo 320 IC50/EC50 (Colo320; assay number 27, basal): > 20 µM | Hela CellCycMod PI 2N IC50/EC50 (HeLa cells; assay number 14, 2N): > 10 µM | Hela CellCycMod PI S Phase IC50/EC50 (HeLa cells; assay number 15, S phase): > 10 µM | Hela CellCycMod PI 4N IC50/EC50 (HeLa cells; assay number 16, 4N): > 10 µM | Hela CellCycMod PI MI IC50/EC50 (HeLa cells; assay number 17, MI): > 10 µM | Hela CellCycMod PI Cell Number IC50/EC50 (HeLa cells; assay number 18, cell number): > 10 µM | Basal_Viability ATP SW480 IC50/EC50 (SW480; assay number 24, basal): 4.028 µM | Basal_Viability ATP DLD-1 IC50/EC50 (DLD-1; assay number 23, basal): 2.2356 µM | Basal_Viability ATP RKO IC50/EC50 (RKO; assay number 29, basal): 8.8772 µM | Basal_Viability ATP SNU-C1 IC50/EC50 (SNU-C1; assay number 30, basal): 2.5347 µM | Basal_Viability ATP HT-29 IC50/EC50 (HT-29; assay number 28, basal): > 6.667 µM

Cc1cccc(Cc2cnc[nH]2)c1C.Cl [NCGC00182057-03]
IC50/EC50, Basal_Viability ATP HCT116 (assay number 25) (HCT116; basal): > 20 µM | IC50/EC50, Basal_Viability ATP Colo 320 (assay number 27) (Colo320; basal): > 20 µM | IC50/EC50, Basal_Viability ATP SW480 (assay number 24) (SW480; basal): > 20 µM | IC50/EC50, Basal_Viability ATP DLD-1 (assay number 23) (DLD-1; basal): > 20 µM | IC50/EC50, Basal_Viability ATP RKO (assay number 29) (RKO; basal): > 20 µM | IC50/EC50, Basal_Viability ATP SNU-C1 (assay number 30) (SNU-C1; basal): > 20 µM | IC50/EC50, Basal_Viability ATP HT-29 (assay number 28) (HT-29; basal): > 20 µM

CCOC(=O)Oc1ccc(CCNC(=O)[C@H](CCSC)NC(C)=O)cc1OC(=O)OCC [NCGC00249931-01]
Basal_Viability ATP HCT116 IC50/EC50 (HCT116; assay number 25, basal): > 20 µM | Basal_Viability ATP Colo 320 IC50/EC50 (Colo320; assay number 27): > 20 µM | Basal_Viability ATP SW480 IC50/EC50 (SW480; assay number 24): > 20 µM | Basal_Viability ATP DLD-1 IC50/EC50 (DLD-1; assay number 23): > 20 µM | Basal_Viability ATP RKO IC50/EC50 (RKO; assay number 29): > 20 µM | Basal_Viability ATP SNU-C1 IC50/EC50 (SNU-C1; assay number 30): > 20 µM | Basal_Viability ATP HT-29 IC50/EC50 (HT-29; assay number 28): > 20 µM

O=c1c(C2CC(c3ccc(-c4ccc(Br)cc4)cc3)Cc3ccccc32)c(O)sc2ccccc12 (stereo not shown) [NCGC00262959-01]
Basal_Viability ATP HCT116 IC50/EC50 (HCT116; assay number 25, basal): 0.4855 µM | Basal_Viability ATP Colo 320 IC50/EC50 (Colo320; assay number 27): 0.7354 µM | Basal_Viability ATP SW480 IC50/EC50 (SW480; assay number 24): 0.187 µM | Basal_Viability ATP DLD-1 IC50/EC50 (DLD-1; assay number 23): 0.239 µM | Basal_Viability ATP RKO IC50/EC50 (RKO; assay number 29): 0.5378 µM | Basal_Viability ATP SNU-C1 IC50/EC50 (SNU-C1; assay number 30): 0.2516 µM | Basal_Viability ATP HT-29 IC50/EC50 (HT-29; assay number 28): 0.4364 µM

Reference: article PMC4503722, “Novel Phenotypic Outcomes Identified for a Public Collection of Approved Drugs from a Publicly Accessible Panel of Assays” (PLoS ONE, 2015)
